# Results as given in the supplement of paper PMC10307832.
# Key:
# Experiment in all cases: relative viability (nuclei count vs DMSO), 5 days (fraction); higher = more cells survive
# 201T = system: 201T
# Outline: (§1)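 After 5 days of treatment, lung cancer cells in 1536-well plates were fixed and stained in a single step (final 0.05% Triton X-100, 1% formaldehyde, 1 ug/ml Hoechst) and their nuclei counted on 4× images. Treatment had been applied by pin tool the day after seeding as one drug alone or as a fixed anchor-drug dose with five library-drug doses (not always all listed) in √10 steps. Relative viability is the nuclei count of treated wells divided by that of vehicle wells, and values are medians of duplicate plates.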
# BEN = system: BEN
# Outline: as §1
# CAL-12T = system: CAL-12T
# Outline: as §1
# HCC-78 = system: HCC-78
# Outline: as §1
# HOP-62 = system: HOP-62
# Outline: as §1
# LCLC-97TM1 = system: LCLC-97TM1
# Outline: as §1
# LOU-NH91 = system: LOU-NH91
# Outline: as §1
# NCI-H1355 = system: NCI-H1355
# Outline: as §1
# NCI-H1395 = system: NCI-H1395
# Outline: as §1
# NCI-H1563 = system: NCI-H1563
# Outline: as §1
# NCI-H1651 = system: NCI-H1651
# Outline: as §1
# NCI-H1793 = system: NCI-H1793
# Outline: as §1
# NCI-H1915 = system: NCI-H1915
# Outline: as §1
# NCI-H1944 = system: NCI-H1944
# Outline: as §1
# NCI-H2126 = system: NCI-H2126
# Outline: as §1
# NCI-H2347 = system: NCI-H2347
# Outline: as §1
# NCI-H3122 = system: NCI-H3122
# Outline: as §1
# NCI-H322M = system: NCI-H322M
# Outline: as §1
# NCI-H441 = system: NCI-H441
# Outline: as §1
# NCI-H650 = system: NCI-H650
# Outline: as §1
# NCI-H838 = system: NCI-H838
# Outline: as §1
# SK-LU-1 = system: SK-LU-1
# Outline: as §1
# SW 1573 = system: SW 1573
# Outline: as §1
smiles,measurement,setting,value
Cc1cn(-c2cc(NC(=O)c3ccc(C)c(Nc4nccc(-c5cccnc5)n4)c3)cc(C(F)(F)F)c2)cn1 [Nilotinib] + C[C@]1(O)C[C@@H](c2nc(-c3ccc4ccc(-c5ccccc5)nc4c3)c3c(N)nccn32)C1 [Linsitinib] (partner 1 µM),relative viability,201T; first compound 0.001 µM,0.942
same,relative viability,201T; first compound 0.003162 µM,1.06
same,relative viability,201T; first compound 0.01 µM,1.12
same,relative viability,BEN; first compound 0.001 µM,0.95
same,relative viability,BEN; first compound 0.003162 µM,0.997
same,relative viability,BEN; first compound 0.01 µM,1.26
same,relative viability,BEN; first compound 0.1 µM,1.05
same,relative viability,CAL-12T; first compound 0.001 µM,0.75
same,relative viability,CAL-12T; first compound 0.003162 µM,0.771
same,relative viability,CAL-12T; first compound 0.01 µM,0.946
same,relative viability,CAL-12T; first compound 0.03162 µM,0.714
same,relative viability,CAL-12T; first compound 0.1 µM,0.565
same,relative viability,HCC-78; first compound 0.001 µM,0.582
same,relative viability,HCC-78; first compound 0.003162 µM,0.522
same,relative viability,HCC-78; first compound 0.01 µM,0.637
same,relative viability,HCC-78; first compound 0.03162 µM,0.612
same,relative viability,HCC-78; first compound 0.1 µM,0.604
same,relative viability,HOP-62; first compound 0.001 µM,0.694
same,relative viability,HOP-62; first compound 0.003162 µM,0.853
same,relative viability,HOP-62; first compound 0.01 µM,0.863
same,relative viability,HOP-62; first compound 0.03162 µM,0.715
same,relative viability,HOP-62; first compound 0.1 µM,0.744
same,relative viability,LCLC-97TM1; first compound 0.001 µM,0.198
same,relative viability,LCLC-97TM1; first compound 0.003162 µM,0.228
same,relative viability,LCLC-97TM1; first compound 0.01 µM,0.276
same,relative viability,LCLC-97TM1; first compound 0.03162 µM,0.245
same,relative viability,LCLC-97TM1; first compound 0.1 µM,0.247
same,relative viability,LOU-NH91; first compound 0.001 µM,0.929
same,relative viability,LOU-NH91; first compound 0.003162 µM,1.01
same,relative viability,LOU-NH91; first compound 0.01 µM,0.976
same,relative viability,LOU-NH91; first compound 0.03162 µM,0.926
same,relative viability,LOU-NH91; first compound 0.1 µM,0.917
same,relative viability,NCI-H1355; first compound 0.001 µM,0.815
same,relative viability,NCI-H1355; first compound 0.003162 µM,1.11
same,relative viability,NCI-H1355; first compound 0.01 µM,1.16
same,relative viability,NCI-H1355; first compound 0.03162 µM,0.836
same,relative viability,NCI-H1355; first compound 0.1 µM,0.934
same,relative viability,NCI-H1395; first compound 0.001 µM,1
same,relative viability,NCI-H1395; first compound 0.003162 µM,0.826
same,relative viability,NCI-H1395; first compound 0.01 µM,1.07
same,relative viability,NCI-H1395; first compound 0.03162 µM,0.86
same,relative viability,NCI-H1395; first compound 0.1 µM,0.759
same,relative viability,NCI-H1563; first compound 0.001 µM,1.13
same,relative viability,NCI-H1563; first compound 0.003162 µM,1.17
same,relative viability,NCI-H1563; first compound 0.01 µM,1.17
same,relative viability,NCI-H1563; first compound 0.03162 µM,1.15
same,relative viability,NCI-H1651; first compound 0.001 µM,1.08
same,relative viability,NCI-H1651; first compound 0.003162 µM,1.42
same,relative viability,NCI-H1651; first compound 0.01 µM,1.32
same,relative viability,NCI-H1651; first compound 0.03162 µM,0.879
same,relative viability,NCI-H1651; first compound 0.1 µM,1.06
same,relative viability,NCI-H1793; first compound 0.003162 µM,1.09
same,relative viability,NCI-H1793; first compound 0.01 µM,1.41
same,relative viability,NCI-H1793; first compound 0.03162 µM,0.734
same,relative viability,NCI-H1793; first compound 0.1 µM,0.443
same,relative viability,NCI-H1915; first compound 0.001 µM,1.01
same,relative viability,NCI-H1915; first compound 0.003162 µM,1.09
same,relative viability,NCI-H1915; first compound 0.03162 µM,1.06
same,relative viability,NCI-H1915; first compound 0.1 µM,1.09
same,relative viability,NCI-H1944; first compound 0.001 µM,1.08
same,relative viability,NCI-H1944; first compound 0.003162 µM,1.41
same,relative viability,NCI-H1944; first compound 0.01 µM,1.5
same,relative viability,NCI-H1944; first compound 0.03162 µM,1.33
same,relative viability,NCI-H1944; first compound 0.1 µM,1.36
same,relative viability,NCI-H2126; first compound 0.001 µM,0.684
same,relative viability,NCI-H2126; first compound 0.003162 µM,0.806
same,relative viability,NCI-H2126; first compound 0.01 µM,0.827
same,relative viability,NCI-H2126; first compound 0.03162 µM,0.779
same,relative viability,NCI-H2126; first compound 0.1 µM,0.666
same,relative viability,NCI-H2347; first compound 0.001 µM,1.01
same,relative viability,NCI-H2347; first compound 0.003162 µM,1.11
same,relative viability,NCI-H2347; first compound 0.01 µM,1.1
same,relative viability,NCI-H2347; first compound 0.03162 µM,0.903
same,relative viability,NCI-H2347; first compound 0.1 µM,0.909
same,relative viability,NCI-H3122; first compound 0.001 µM,1.16
same,relative viability,NCI-H3122; first compound 0.003162 µM,1.11
same,relative viability,NCI-H3122; first compound 0.01 µM,1.16
same,relative viability,NCI-H3122; first compound 0.03162 µM,0.894
same,relative viability,NCI-H3122; first compound 0.1 µM,0.833
same,relative viability,NCI-H322M; first compound 0.001 µM,0.747
same,relative viability,NCI-H322M; first compound 0.003162 µM,1.03
same,relative viability,NCI-H322M; first compound 0.03162 µM,0.76
same,relative viability,NCI-H322M; first compound 0.1 µM,0.932
same,relative viability,NCI-H441; first compound 0.001 µM,0.503
same,relative viability,NCI-H441; first compound 0.003162 µM,0.588
same,relative viability,NCI-H441; first compound 0.01 µM,0.482
same,relative viability,NCI-H441; first compound 0.1 µM,0.512
same,relative viability,NCI-H650; first compound 0.001 µM,0.81
same,relative viability,NCI-H650; first compound 0.003162 µM,0.778
same,relative viability,NCI-H650; first compound 0.01 µM,0.925
same,relative viability,NCI-H650; first compound 0.03162 µM,0.84
same,relative viability,NCI-H650; first compound 0.1 µM,0.686
same,relative viability,NCI-H838; first compound 0.001 µM,0.989
same,relative viability,NCI-H838; first compound 0.003162 µM,1.37
same,relative viability,NCI-H838; first compound 0.01 µM,1.39
same,relative viability,NCI-H838; first compound 0.03162 µM,0.967
same,relative viability,NCI-H838; first compound 0.1 µM,0.968
same,relative viability,SK-LU-1; first compound 0.001 µM,0.916
same,relative viability,SK-LU-1; first compound 0.003162 µM,1.25
same,relative viability,SK-LU-1; first compound 0.01 µM,1.46
same,relative viability,SK-LU-1; first compound 0.03162 µM,0.987
same,relative viability,SK-LU-1; first compound 0.1 µM,0.9
same,relative viability,SW 1573; first compound 0.001 µM,0.939
same,relative viability,SW 1573; first compound 0.003162 µM,0.935
same,relative viability,SW 1573; first compound 0.01 µM,0.73
same,relative viability,SW 1573; first compound 0.03162 µM,0.756
same,relative viability,SW 1573; first compound 0.1 µM,0.841
